Data reported in patent publication US10040822B2, “Neuroprotective composition and method of use” (Brown University, priority 2012, dated 2018).
Where no end group is shown, it is not given here.

Key:
[1] = system: NMDA-insult to the retina; experiment: In vivo rat retinal toxicity model of NMDA-induced chemical stroke; conditions: for long-term protection against NMDA-induced retinal ganglion cell death: 14-21 day post-insult, single dosing; for long-term protection against NMDA-induced retinal ganglion cell death / short-term protection against NMDA-insult / NMDA-induced loss of plasma membrane selectivity in NMDA-receptive neurons / NMDA-induced caspase activation / NMDA-induced mitochondrial-induced oxidative stress in the retina / NMDA-induced poly-(ADP)ribosylolation: rat retina; for short-term neuronal cell death signaling: compound administered simultaneously with NMDA-induced chemical stroke; for NMDA-induced loss of plasma membrane selectivity in NMDA-receptive neurons: out to 8 hrs post-insult, compound given simultaneously with NMDA; for NMDA-induced caspase activation / NMDA-induced mitochondrial-induced oxidative stress in the retina / NMDA-induced poly-(ADP)ribosylolation: short-term, 2-4 hrs post-NMDA-insult
Source text: 7. Blockade of PARP activity attenuates poly(ADP-ribosyl)ation but offers only partial neuroprotection against NMDA-induced cell death in the rat retina. (Goebel and Winkler, J Neuro Chem, 98:1732-1745, 2006) (NMDA-induced chemical stroke in vivo rat retinal neurotoxicity model).
In a test model, the retina was protected from NMDA-induced chemical stroke. […] The compositions of this invention are useful in a variety of clinical situations, most of which are characterized by neurological insult or cellular insult typified by mitochondrial damage. Without being bound by any particular theory, untreated mitochondrial damage is believed to lead to generation of free radical species. The compositions of this invention appear to avert or curtail oxidative stress in the retina following NMDA-insult by reducing mitochondrial originated free radical generation. Without being bound by any particular theory, such activity is believed to be significant in neuroprotection arising from the compositions of this invention.
Data establish that the compounds of the present invention protect the neural tissue (retina) against a strong NMDA-insult, with particular reference to R(7) (SEQ ID NO: 5), CR(7) (SEQ ID NO: 8) and C-s-s-CR(7) (“CR(7)” disclosed as SEQ ID NO: 8).

stroke = experiment: Stroke patient treated i.v. with polyarginine (Examples 1, 2); type: in vivo, human
Procedure: A person enters the emergency room and is diagnosed with an ischemic event involving the middle cerebral artery, with symptomatology onset being under 1 hr. Immediately, the patient was administered an i.v. supplemented with poly-arginine (R(7)C-s-s-C (“R(7)C” disclosed as SEQ ID NO: 12), 5 mg/kg) while blood supply to the restricted area is restored.
A person is revived following stoke in their home by EMS and is rushed to the nearest hospital 80 miles away. Upon arriving at the hospital it is determined that the patient is showing signs of weakness on their left side. […] They are immediately started an i.v. and administered poly arginine (R(7) (SEQ ID NO: 5))@ 4 mg/kg/hr over a period of 5 days to arrest post-stroke neuronal damage. The patient is monitored for recovery signs.

Traumatic Brain Injury = experiment: TBI patient treated i.v. with polyarginine (Example 3); type: in vivo, human; conditions: Example 3, severe concussion patient, i.v. 0.05 mg/kg, 3-5 days
Procedure: A high school football player is rushed to the emergency room of a local hospital suffering from a severe concussion following a helmet to helmet impact with an opposing player. The patient is initially unconscious on the field for over 20 min. EMS personnel arrived to find the patient responding to stimuli, but completely disoriented and unable to coordinate muscle movement, articulate speech or focus eye movements. Upon arriving at the ER, the patient is administered an i.v. containing R(7)C-s-s-C (“R(7)C” disclosed as SEQ ID NO: 12) peptide at 0.05 mg/kg. Delivery of the peptide continued until brain swelling resulting from the impact returns to normal state (3-5 days). Without being bound by any particular theory, the therapeutic is to arrest neuronal cell death resulting from these documented post-traumatic effects.

spinal cord injury = experiment: Spinal cord injury patient treated i.v. with polyarginine (Example 8); type: in vivo, human; conditions: Example 8, spinal cord injury patient, i.v. 0.15 mg/kg every other day for 30 days
Procedure: A person presents with a spinal cord injury following an automobile accident. The subject is conscious but unable to move their legs. […] A Th(11)-L(2) laminectomy is performed along with retrieval of foreign bodies and dura repair. Upon admission the patient is administered an i.v. containing R(7)C-s-s-C (“R(7)C” disclosed as SEQ ID NO: 12) peptide at 0.15 mg/kg.

[2] = system: neurons in the spinal cord and in the brain; experiment: Intrathecal and intraventricular injection of fluorescent-tagged peptides, distribution in spinal cord and brain; type: in vivo; conditions: fluorescent-tagged peptide
Source text: Testing addressed intrathecal and intraventricular injection of fluorescent-tagged R(7) (SEQ ID NO: 5) and C-s-s-C-R(7) (“C-R(7)” disclosed as SEQ ID NO: 8). […] This approach is a workable option for quick delivery to prevent both stroke or traumatic injury to these tissues.

HEK293 cells = experiment: Cultured HEK293 cells pretreated with peptide, chemically induced excitotoxic challenge, mitochondrial readouts; type: cell-based; conditions: for oxidative stress following excitotoxic challenge / stress-induced hyperpolarization of the mitochondrial membrane potentials: HEK293 cells pretreated with peptide, compared with sham-treated controls; for mitochondrial oxidative stress: further studies by the applicant's group, system not given
glaucoma = experiment: Glaucoma patient treated with CR(7) eye drops (Example 9); type: in vivo, human; conditions: Example 9, glaucoma patient, eye drops 1.25 μg per 20 μl drop, two drops morning and night, chronic
Procedure: A person presents with a complaint of blurry vision in their left eye for 1 week. Their IOP is above 21 mmHg. A diagnosis of glaucoma is made.
Effort is made to surgically reduce IOP. In post-surgical monitoring, IOP levels remain above normal excepted levels. To prevent retinal damage resulting from the prolonged exposure to elevated IOP. the patient is administered CR(7) (SEQ ID NO: 8) in the form of eye drops suspended in a corneal penetrating lipophilic suspension. Each 20 μl drop contains 1.25 μg of CR(7) (SEQ ID NO: 8) The total applied/treatment is 2.5 μg. Two drops are administered morning and two drops at night

retinal neurons = experiment: Uptake of fluorescent-tagged peptides into retinal neurons after injection into the vitreal chamber; type: in vivo; conditions: intravitreal, rat
Procedure: Attention is drawn to the uptake into brain tissues under in vivo conditions Fluorescent-tagged R(7) (SEQ ID NO: 5) and C-s-s-CR(7) (“CR(7)” disclosed as SEQ ID NO: 8) were injected into the vitreal chamber of a rat eyes and analyzed for specific uptake into retinal neurons at multiple time points post-injection. […] At longer time points (2-4 hrs post injection) the accumulation of the labeled peptides accumulated within the cytoplasm of the majority of neurons in the inner half of the retina with preferential accumulations being localized to small membrane-bound organelles surrounding the nucleus of both ganglion cells and amacrine cells as well as in exiting ganglion cell axons.

[3] = Example 2, post-stroke patient, i.v. 4 mg/kg/hr over 5 days, observed over the next 30 days

| Compound | long-term protection against NMDA-induced retinal ganglion cell death [1] | short-term protection against NMDA-insult [1] | short-term neuronal cell death signaling [1] | NMDA-induced loss of plasma membrane selectivity in NMDA-receptive neurons [1] | NMDA-induced caspase activation [1] | NMDA-induced mitochondrial-induced oxidative stress in the retina [1] | NMDA-induced poly-(ADP)ribosylolation [1] | oxidative stress following excitotoxic challenge (HEK293 cells) | stress-induced hyperpolarization of the mitochondrial membrane potentials (HEK293 cells) | mitochondrial oxidative stress (HEK293 cells) | also measured |
| --- | --- | --- | --- | --- | --- | --- | --- | --- | --- | --- | --- |
| d-C-s-s-dCdR(7): d-isomer of C-s-s-CR(7) (CRRRRRRR; D-amino acids, disulfide-linked; MOD_RES (1)..(7) Residues are D configuration) | full short- and long-term neuroprotection | full short- and long-term neuroprotection | – | – | – | – | – | – | – | – | – |
| R(7)-C: 7 arginine peptide with C-terminus cysteine (SEQ ID NO: 12) (RRRRRRRC; MOD_RES (1)..(7) Residues may be D or L configuration) | both short and long-term protection | both short and long-term protection | – | – | – | – | – | – | – | – | – |
| R(7)C-s-s-C: R(7)C (SEQ ID NO: 12) with second cysteine linked by disulfide to the terminal cysteine (RRRRRRRC(Cys); also: extra cysteine disulfide-linked to Cys8) | – | – | – | – | – | – | – | – | – | – | CT/MRI imaging of the affected region (stroke; Example 1, ischemic stroke patient, i.v. 5 mg/kg): no signs of lesioning in the affected region; daily testing of cognitive and motor systems (stroke; Example 1, ischemic stroke patient, i.v. 5 mg/kg, onset under 1 hr): no deficits in physical or mental capacities; TBI and post-concussion symptoms (Traumatic Brain Injury): remains symptom free of TBI and post-concussion effects; recovery of leg movement (spinal cord injury): substantial ability to move their legs is returned |
| d-CdR(7): d-isomer of CR(7) (SEQ ID NO: 13) (CRRRRRRR; D-amino acids; MOD_RES (1)..(7) Residues are D configuration) | full short- and long-term neuroprotection | full short- and long-term neuroprotection | – | – | – | – | – | – | – | – | – |
| fluorescent-tagged CR(7): fluorescent-tagged CR(7) (SEQ ID NO: 8) (CRRRRRRR; also: fluorescent tag, position not given here) | – | – | – | – | – | – | – | – | – | – | accumulation in neurons of spinal cord and brain [2]: Preferential accumulation was noted in the neurons located within the hippocampus and cerebral cortex; crossing of the pia matter glial barrier [2]: readily crosses the pia matter glial barrier |
| RRRRRRR [R(7)] | less effective | full short-term protection | block | blocked | fully block | fully block | fully block | significant attenuation | significant attenuation | significantly prevented | muscle tone and limb recovery (stroke; [3]): increased muscle tone on the left side; speech pattern recovery (stroke; [3]): Improvement in their speech pattern |
| C-R-R-R-R-R-R-R (CRRRRRRR) [CR(7)] | not significantly different from results obtained from untreated or sham-treated control retinas | – | block | blocked | fully block | fully block | fully block | significant attenuation | significant attenuation | significantly prevented | neuroprotection ([1]; general statement, retina, NMDA-insult): effective when the peptide is made with either l- or d-amino acids; progression of neuronal cell death (glaucoma): no progression of neuronal cell death is detected |
| N=C(N)NCCCC(NC(=O)[C@H](CCCNC(=N)N)NC(=O)C(N)CSSC[C@H](N)C(=O)O)C(=O)N[C@@H](CCCNC(=N)N)C(=O)NC(CCCNC(=N)N)C(=O)N[C@@H](CCCNC(=N)N)C(=O)NC(CCCNC(=N)N)C(=O)N[C@@H](CCCNC(=N)N)C(N)=O (stereo partly shown) [C-s-s-CR(7), C-s-s-C-R-R-R-R-R-R-R] | not significantly different from results obtained from untreated or sham-treated control retinas | – | block | blocked | fully block | fully block | fully block | significant attenuation | significant attenuation | significantly prevented | – |
| Fluorescent-tagged R(7): Fluorescent-tagged R(7) (SEQ ID NO: 5) (RRRRRRR; also: fluorescent tag, position not given here) | – | – | – | – | – | – | – | – | – | – | accumulation in retinal neurons and glia cells of ganglion and inner nuclear layers (retinal neurons; fluorescent-tagged peptide, 30 min following injection): significant accumulations; subcellular localisation of labeled peptide (double labeling) (retinal neurons; 2-4 hrs post injection): majority of these labeled puncta colocalize with mitochondrial-specific markers |
